Test results: patent US9676715B2, “Bis-indolic derivatives, a process for preparing the same and their uses as a drug” (UNIVERSITE JOSEPH FOURIER, priority 2011, dated 2017)
Converted amounts (≈) assume the structure as drawn.

Experiments:
[1] = tested on: HCT116 (human colon tumor); test: In vitro cytotoxicity; format: cell-based; details: HCT-116, HCT116, from 100 μM to 0.005 μM in DMSO, duplicate
[2] = tested on: Klebsiella pneumoniae API ATCC 35657; test: MIC, microdilution method (9.1); format: cell-based; details: ATCC35657, 18 h, read-out: MIC
How it was run: (§1)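 Inocula were prepared in Mueller Hinton broth and dispensed at a final density of 5×10^5 CFU/ml. Two-fold dilutions of each indole derivative, spanning 0.50-128 mg/L final, were added, and plates were kept at 37° C. in ambient air.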

[3] = tested on: Listeria innocua CIP 80.11; test: MIC, microdilution method (9.1); format: cell-based; details: CIP80, 18 h, read-out: MIC
How it was run: as §1

[4] = tested on: Escherichia coli ATCC 25922; test: MIC, microdilution method (9.1); format: cell-based; details: ATCC25922, 18 h
How it was run: as §1

[5] = tested on: Acinetobacter baumanii ATCC 19606; test: MIC, microdilution method (9.1); format: cell-based; details: Acinetobacter baumannii, ATCC19606, 18 h, read-out: MIC
How it was run: as §1

[6] = tested on: Bacillus subtilis CIP 5262; test: MIC, microdilution method (9.1); format: cell-based; details: CIP5262, 18 h, read-out: MIC
How it was run: as §1

[7] = tested on: Serratia marcescens CIP 103551; test: MIC, microdilution method (9.1); format: cell-based; details: CIP103551, 18 h
How it was run: as §1

S. pneumoniae ATCC 49619 = test: MIC, microdilution method (9.1); format: cell-based; details: Streptococcus pneumoniae, ATCC49619, 10% sheep blood, 5% CO2, 18 h
How it was run: (§2)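 Mueller Hinton broth cultures at 5×10^5 CFU/ml final were exposed to doubling concentrations of compound from 0.50 to 128 mg/L. Incubation: 37° C., ambient atmosphere. Method per CLSI M07-A8; blood supplement and CO2 reserved for fastidious organisms.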

[8] = tested on: Enterobacter cloacae ATCC13047; test: MIC, microdilution method (9.1); format: cell-based; details: 18 h
How it was run: as §1

[9] = tested on: Pseudomonas aeruginosa CIP 5933; test: MIC, microdilution method (9.1); format: cell-based; details: CIP5933, 18 h, read-out: MIC
How it was run: as §1

[10] = tested on: Haemophilus influenzae ATCC 49766; test: MIC, microdilution method (9.1); format: cell-based; details: ATCC49766; Haemophilus influenzae ATCC 49766; 10% sheep blood, 5% CO2; 18 h; read-out: MIC
How it was run: as §2

[11] = tested on: S. epidermidis ATCC 12228; test: MIC, microdilution method (9.1); format: cell-based, Staphylococcus epidermidis; details: Staphylococcus epidermidis, ATCC12228, read after 18 h, read-out: MIC
How it was run: as §1

S. epidermidis CIP 81.55 = test: MIC, microdilution method (9.1); format: cell-based, Staphylococcus epidermidis; details: Staphylococcus epidermidis, CIP81, read after 18 h, read-out: MIC
How it was run: as §1

[12] = tested on: S. epidermidis CIP 103627; test: MIC, microdilution method (9.1); format: cell-based, Staphylococcus epidermidis; details: Staphylococcus epidermidis, CIP103627, read after 18 h, read-out: MIC
How it was run: as §1

S. mitis CIP 103335 = test: MIC, microdilution method (9.1); format: cell-based, Streptococcus mitis; details: Streptococcus mitis, CIP103335, 18 h, read-out: MIC
How it was run: as §1

[13] = tested on: S. pyogenes (group A) CIP 104226; test: MIC, microdilution method (9.1); format: cell-based, Streptococcus pyogenes; details: Streptococcus pyogenes, CIP104226, 18 h, read-out: MIC
How it was run: as §1

S. aureus CIP 65.6 = test: MIC, microdilution method (9.1); format: cell-based, Staphylococcus aureus; details: Staphylococcus aureus, CIP65, read after 18 h, read-out: MIC
How it was run: as §1

S. aureus CIP 103428 = test: MIC, microdilution method (9.1); format: cell-based, Staphylococcus aureus; details: Staphylococcus aureus, CIP103428, read after 18 h, read-out: MIC
How it was run: as §1

S. aureus ATCC 6538 = test: MIC, microdilution method (9.1); format: cell-based, Staphylococcus aureus; details: Staphylococcus aureus, ATCC6538, read after 18 h, read-out: MIC
How it was run: as §1

S. aureus ATCC 25923 = test: MIC, microdilution method (9.1); format: cell-based, Staphylococcus aureus; details: Staphylococcus aureus, ATCC25923, read after 18 h, read-out: MIC
How it was run: as §1

S. aureus ATCC 29213 = test: MIC, microdilution method (9.1); format: cell-based, Staphylococcus aureus; details: Staphylococcus aureus, ATCC29213, read after 18 h, read-out: MIC
How it was run: as §1

[14] = tested on: S. aureus CIP 65.25 (MRSA); test: MIC, microdilution method (9.1); format: cell-based, Staphylococcus aureus; details: Staphylococcus aureus, read after 18 h, read-out: MIC
How it was run: as §1

E. faecium CIP 54.32 = test: MIC, microdilution method (9.1); format: cell-based, Enterococcus faecium; details: Enterococcus faecium, CIP54, 18 h, read-out: MIC
How it was run: as §1

[15] = tested on: HCT116 (human colon tumor); test: In vitro cytotoxicity; format: cell-based; details: read-out: % of cellular growth inhibition; for inhibition at 10 µM: HCT-116, 10^−5 M; for inhibition at 1 µM: HCT-116, 10^−6 M
Experimental: (§3) In vitro cytotoxicity was assayed on three cell lines—KB (human mouth carcinoma), MCR5 (human lung fibroblast) and HCT116 (human colon tumor). Results are presented in table IV as % of cellular growth inhibition in presence of 10^−5 M and 10^−6 M of the tested bis-indolic derivatives.

[16] = tested on: KB (human mouth carcinoma); test: In vitro cytotoxicity; format: cell-based; details: read-out: % of cellular growth inhibition; for inhibition at 10 µM: 10^−5 M; for inhibition at 1 µM: 10^−6 M
Experimental: as §3

[17] = tested on: MRC5 (human lung fibroblast); test: In vitro cytotoxicity; format: cell-based; details: read-out: % of cellular growth inhibition; for inhibition at 10 µM: 10^−5 M; for inhibition at 1 µM: 10^−6 M
Experimental: as §3

[18] = tested on: S. agalactiae (group B) ATCC 12400; test: MIC, microdilution method (9.1); format: cell-based, Streptococcus agalactiae; details: Streptococcus agalactiae, ATCC12400, 18 h, read-out: MIC
How it was run: as §1

Row | Structure (SMILES) | IC50 ([1]; first value) | IC50 ([1]; second value) | MIC [2] | MIC [3] | MIC [4] | MIC [5] | MIC [6] | MIC [7] | MIC (S. pneumoniae ATCC 49619) | MIC [8] | MIC [9] | MIC [11] | MIC (S. epidermidis CIP 81.55) | MIC [12] | MIC (S. aureus CIP 65.6) | MIC (S. aureus CIP 103428) | MIC (S. aureus ATCC 6538) | MIC (S. aureus ATCC 25923) | MIC (S. aureus ATCC 29213) | MIC [14] | also measured
1 | CC(C)(C)OC(=O)NCC(NC(=O)c1c[nH]c2ccc(Br)cc12)c1c[nH]c2ccc(Br)cc12 (centres unmarked) [Compound 3f, tert-Butyl(2-(5-bromo-1H-indol-3-yl)-2-(5-bromo-1H-indolyl-3-carboxamido)ethyl)carbamate] | 5.24 µM | 5.05 µM | > 128 µg/mL | > 128 µg/mL | > 128 µg/mL | > 128 µg/mL | 32 µg/mL (≈ 55.5 µM) | > 128 µg/mL | 32 µg/mL (≈ 55.5 µM) | > 128 µg/mL | > 128 µg/mL | 1 µg/mL (≈ 1.74 µM) | 2 µg/mL (≈ 3.47 µM) | 1 µg/mL (≈ 1.74 µM) | 1 µg/mL (≈ 1.74 µM) | 1 µg/mL (≈ 1.74 µM) | 1 µg/mL (≈ 1.74 µM) | 1 µg/mL (≈ 1.74 µM) | 1 µg/mL (≈ 1.74 µM) | 2 µg/mL (≈ 3.47 µM) | MIC [10]: 32 µg/mL (≈ 55.5 µM); MIC (S. mitis CIP 103335): 64 µg/mL (≈ 111 µM); MIC [13]: 32 µg/mL (≈ 55.5 µM); MIC (E. faecium CIP 54.32): > 128 µg/mL; inhibition at 10 µM [15]: 89 ± 9%; inhibition at 1 µM [15]: 0%; inhibition at 10 µM [16]: 97 ± 1%; inhibition at 1 µM [16]: 0%; inhibition at 10 µM [17]: 91 ± 10%; inhibition at 1 µM [17]: 0%; MIC [18]: 32 µg/mL (≈ 55.5 µM)
2 | CC(NC(=O)c1c[nH]c2ccc(Br)cc12)c1c[nH]c2ccc(Br)cc12 (centres unmarked) [Compound 4, 5-Bromo-N-(1-(5-bromo-1H-indol-3-yl)ethyl)-1H-indole-3-carboxamide] | 6.43 µM | 10 µM | > 128 µg/mL | – | > 128 µg/mL | > 128 µg/mL | – | > 128 µg/mL | – | > 128 µg/mL | > 128 µg/mL | 2 µg/mL (≈ 4.34 µM) | 2 µg/mL (≈ 4.34 µM) | 4 µg/mL (≈ 8.67 µM) | 2 µg/mL (≈ 4.34 µM) | 2 µg/mL (≈ 4.34 µM) | 2 µg/mL (≈ 4.34 µM) | 2 µg/mL (≈ 4.34 µM) | 2 µg/mL (≈ 4.34 µM) | 2 µg/mL (≈ 4.34 µM) | inhibition at 10 µM [15]: 12 ± 1%; inhibition at 1 µM [15]: 0%; inhibition at 10 µM [16]: 13 ± 3%; inhibition at 1 µM [16]: 0%; inhibition at 10 µM [17]: 36 ± 4%; inhibition at 1 µM [17]: 7%
3 | Cn1cc(C(=O)NC(CNC(=O)OC(C)(C)C)c2c[nH]c3ccc(Br)cc23)c2cc(Br)ccc21 (centres unmarked) [Compound 7, tert-Butyl (2-(5-bromo-1-methyl-1H-indole-3-carboxamido)-2-(5-bromo-1H-indol-3-yl)ethyl) carbamate] | 10.1 µM | 13.1 µM | > 128 µg/mL | > 128 µg/mL | > 128 µg/mL | > 128 µg/mL | > 128 µg/mL | > 128 µg/mL | > 128 µg/mL | > 128 µg/mL | > 128 µg/mL | > 128 µg/mL | > 128 µg/mL | > 128 µg/mL | > 128 µg/mL | > 128 µg/mL | > 128 µg/mL | > 128 µg/mL | > 128 µg/mL | > 128 µg/mL | MIC [10]: > 128 µg/mL; MIC (S. mitis CIP 103335): > 128 µg/mL; MIC [13]: > 128 µg/mL; MIC (E. faecium CIP 54.32): > 128 µg/mL; inhibition at 10 µM [15]: 35 ± 3%; inhibition at 1 µM [15]: 8%; inhibition at 10 µM [16]: 52 ± 2%; inhibition at 1 µM [16]: 2%; inhibition at 10 µM [17]: 23 ± 6%; inhibition at 1 µM [17]: 12%; MIC [18]: > 128 µg/mL
4 | NCCCCNC(=O)C(NC(=O)c1c[nH]c2ccc(Br)cc12)c1c[nH]c2ccc(Br)cc12 (centres unmarked) [Compound 16, N-(2-((4-Aminobutyl)amino)-1-(5-bromo-1H-indol-3-yl)-2-oxoethyl)-5-bromo-1H-indole-3-carboxamide] | 52.9 µM | 42.8 µM | > 32 µg/mL | > 128 µg/mL | 16 µg/mL (≈ 28.5 µM) | > 32 µg/mL | > 128 µg/mL | > 32 µg/mL | > 128 µg/mL | 16 µg/mL (≈ 28.5 µM) | 32 µg/mL (≈ 57 µM) | 8 µg/mL (≈ 14.3 µM) | 8 µg/mL (≈ 14.3 µM) | 8 µg/mL (≈ 14.3 µM) | 8 µg/mL (≈ 14.3 µM) | 8 µg/mL (≈ 14.3 µM) | 8 µg/mL (≈ 14.3 µM) | 8 µg/mL (≈ 14.3 µM) | 8 µg/mL (≈ 14.3 µM) | 8 µg/mL (≈ 14.3 µM) | MIC [10]: > 128 µg/mL; MIC (S. mitis CIP 103335): > 128 µg/mL; MIC [13]: > 128 µg/mL; MIC (E. faecium CIP 54.32): > 128 µg/mL; MIC [18]: > 128 µg/mL
